# Test system: FBXW7
# Assay: Ratiometric EGFP/DsRed protein degradation assay with degron probes
# Format: cell-based, human
# Settings: putative degron motif in EGFP-fused probe with AAKG2 MAPK docking motif; HEK293T, 48 h after transfection, EGFP/DsRed ratio with and without FBXW7 plasmid; search cycles 1-4
# Description: In order to be able to test putative phosphodegron motifs, a ratiometric protein level monitoring method was adapted to monitor MAPK controlled FBXW7 mediated protein degradation. Briefly, intact DsRed and an EGFP-chimera were expressed in HEK293T cells in equal amounts from an expression plasmid, giving an EGFP/DsRed fluorescence ratio close to one under non-degrading conditions. EGFP was fused to a probe comprised of a putative degron sequence and a known MAPK binding docking motif. EGFP signal is expected to diminish faster than DsRed in cells with more FBXW7 if the probe responded to degradation.
# We started out from an intentionally general consensus motif of FBXW7 degrons, inspired by the liberal [TS]P..[TS]P pattern defined for yeast Cdc4 substrates, and scanned the human disordered part of the proteome using SliMSearch4 (the disorder score cut-off was 0.4 and flank length was 5). In all, 22 motifs from this list were subjectively chosen and tested in the ratiometric degradation assay giving only 5 positives (see Supplementary Table S1). Based on the results of this first round, by taking information both from the identified positives and negatives, the consensus motif definition was narrowed to requiring a proline at P + 2, but motifs were allowed to have a phospho-mimicking residue (D or E) at P + 4 because it had been formerly reported that this second phosphorylatable residue may be replaced by aspartate or glutamate. […] In the third round, hydrophobic amino acids were more strictly required at positions −1/−2 and P − 1/2/3 positions were further narrowed and P + 4 position was relaxed based on the identified negatives, which gave a higher hit rate (4 out of 6). This third round gave functional motifs at a good rate, but the used motif definition was very restrictive compared to other known motifs. Finally, in the fourth round, we gave up using an optimal consensus and established the positional relaxation model. […] Hits on this final, most predictive list are presented in Supplementary Table S2. All entries were filtered for motif locations by UniProt annotations, discarding all enzyme-inaccessible (e.g., extracellular) instances. Motifs that had any overlapping PFAM domain indicated were manually assessed using the AlphaFold EBI website. Out of these, only motifs that were highly accessible and located outside of confidently predicted folded domains were kept. We also added kinase consensus compatibility to every motif and the number of experiments where phosphorylation could be detected from PhosphoSitePlus.
# The chimera degron module was ordered from IDT as gene Block (gBlock). It consisted of a coiled coil dimerization motif (GCN4: EELLSKNYHLENEVARLKK) to increase sensitivity by allowing multivalent binding, a MAPK binding docking motif (AAKG2: KKNASQKRRSLRVHIPDL), and the CycECO degron motif. The motifs were separated by Gly-Ser-Asn linkers and the gBlock was designed so that the motifs could be easily changed by using unique sets of restriction endonucleases. The gBlock was sub-cloned into the Gateway pENTR4 entry plasmid (Thermo Fisher, Waltham, MA, USA) using restriction enzymes (SalI and NotI). The pENTR4-chimera and the destination plasmid (MSCV-CMV-DsRed-IRES-EGFP-DEST from Addgene; 41941), [28]) were subjected to gateway cloning using LR clonase II enzyme (Invitrogen) to obtain the first DsRed-EGFP-chimera DNA construct containing the cycECO degron. Oligonucleotides corresponding to different degron sequences and docking motifs were ligated into the DsRed-EGFP-chimera DNA construct. The list of all the oligonucleotides used for cloning is provided in Supplementary Table S3. pcDNA3-FLAG-FBXW7α was a kind gift from Michael Pagano (New York University). The FBXW7 arginine mutant (Arg mutant: R465C; R479Q; R505L) was created using two-step PCR and cloned into the pcDNA3-FLAG plasmid. […]
row,Sequence,Outcome
1,"AHELPLTPPADPSYPY [SP5, putative FBXW7 degron motif tested as EGFP-fused degradation probe]","Positive (tested positive, where +FBXW7/control protein level ratio was lower than 1)"
2,"AIRQSPSPPPEESRG [PDE4A, putative FBXW7 degron motif tested as EGFP-fused degradation probe]",Negative
3,"AKEFAPATPPSTPHNSSV [AKAP11-2nd, putative FBXW7 degron motif tested as EGFP-fused degradation probe]",Negative
4,"APPIPSPPPSPPPSPAPLEP [CAMTA2, putative FBXW7 degron motif tested as EGFP-fused degradation probe]","Positive (tested positive, where +FBXW7/control protein level ratio was lower than 1)"
5,"ASPTPPSPPPPPSPPASPSLPP [PP1R37, putative FBXW7 degron motif tested as EGFP-fused degradation probe]",Negative
6,"AVRTPPRTPNIV [KSR2-a, putative FBXW7 degron motif tested as EGFP-fused degradation probe]",Negative
7,"AVVRTPPKSPSSAK [Tau, putative FBXW7 degron motif tested as EGFP-fused degradation probe]",Negative
8,"DLLAALPTPPHNQTEDV [KMT2D-3rd, putative FBXW7 degron motif tested as EGFP-fused degradation probe]","Positive (tested positive, where +FBXW7/control protein level ratio was lower than 1)"
9,"DRNVIPDTPPSTPLVPSR [AKAP11-1st, putative FBXW7 degron motif tested as EGFP-fused degradation probe]","Positive (tested positive, where +FBXW7/control protein level ratio was lower than 1)"
10,"ELDLMPYTPPQSTPKSA [PBRM1, putative FBXW7 degron motif tested as EGFP-fused degradation probe]",Negative
11,"EQPSHTPPQTPTPPSTPPLGKQ [ARHGAP17, putative FBXW7 degron motif tested as EGFP-fused degradation probe]",Negative
12,"FSYQESPPRSPRRMSFSG [AAKG2, putative FBXW7 degron motif tested as EGFP-fused degradation probe]",Negative
13,"GEAAGSPVPTPPRSPAQEE [Bcl2L12, putative FBXW7 degron motif tested as EGFP-fused degradation probe]",Negative
14,"GEGDRGVSPPPSPFFSAI [FRY, putative FBXW7 degron motif tested as EGFP-fused degradation probe]",Negative
15,"GGHLESPARSLPQRP [FAAP20, putative FBXW7 degron motif tested as EGFP-fused degradation probe]",Negative
16,"GQAATPETPQPSPPGGSGS [HNF4, putative FBXW7 degron motif tested as EGFP-fused degradation probe]",Negative
17,"GSDGASPPASPSIIPR [MAP3K10, putative FBXW7 degron motif tested as EGFP-fused degradation probe]",Negative
18,"IHQAGGSPPASSTSSS [RAPTOR, putative FBXW7 degron motif tested as EGFP-fused degradation probe]",Negative
19,"KHSNSPPLVTPPQSPVSPQPPA [SMTL2, putative FBXW7 degron motif tested as EGFP-fused degradation probe]","Positive (tested positive, where +FBXW7/control protein level ratio was lower than 1)"
20,"KMSQPGSPSPKTPTPSTPGDTQ [CHD4, putative FBXW7 degron motif tested as EGFP-fused degradation probe]",Negative
21,"KQFLISPPASPPVGWKQV [RCAN1, putative FBXW7 degron motif tested as EGFP-fused degradation probe]",Negative

row,Sequence,Outcome
1,"KTGEQTPPHEHICLRDELP [JIP1, putative FBXW7 degron motif tested as EGFP-fused degradation probe]",Negative
2,"LGPVHPTPPPSSPQEP [KMT2D-a, putative FBXW7 degron motif tested as EGFP-fused degradation probe]",Negative
3,"MVQRLGLISPPASQVSTA [GLIS3, putative FBXW7 degron motif tested as EGFP-fused degradation probe]",Negative
4,"NYGARPPPTPPASPPPSV [KMT2E, putative FBXW7 degron motif tested as EGFP-fused degradation probe]","Positive (tested positive, where +FBXW7/control protein level ratio was lower than 1)"
5,"PLGPPATPPGSPPCSLL [PKMYT1, putative FBXW7 degron motif tested as EGFP-fused degradation probe]",Negative
6,"PPEESPLSPPPEASRLS [KMT2D-b, putative FBXW7 degron motif tested as EGFP-fused degradation probe]",Negative
7,"PPLQVPPSPPASPPMSPS [PRR36, putative FBXW7 degron motif tested as EGFP-fused degradation probe]","Positive (tested positive, where +FBXW7/control protein level ratio was lower than 1)"
8,"PRPPRPPSPPPEPETTD [SETD1B, putative FBXW7 degron motif tested as EGFP-fused degradation probe]",Negative
9,"PSFPPTPPTPPASPPHTPV [EIF4G3, putative FBXW7 degron motif tested as EGFP-fused degradation probe]","Positive (tested positive, where +FBXW7/control protein level ratio was lower than 1)"
10,"PSTTVGSHSPPETPVLTR [ZMYND1 or 8, putative FBXW7 degron motif tested as EGFP-fused degradation probe]",Negative
11,"QGQKVGSLTPPSSPKTQRA [AAK1, putative FBXW7 degron motif tested as EGFP-fused degradation probe]",Negative
12,"QGYLSPESSPPASPVPACS [CREB5, putative FBXW7 degron motif tested as EGFP-fused degradation probe]",Negative
13,"QQAPLTPPNTPDPRSPPNPDNIA [Myozenin2, putative FBXW7 degron motif tested as EGFP-fused degradation probe]","Positive (tested positive, where +FBXW7/control protein level ratio was lower than 1)"
14,"RPALPATPPATPPAASP [CDT1, putative FBXW7 degron motif tested as EGFP-fused degradation probe]","Positive (tested positive, where +FBXW7/control protein level ratio was lower than 1)"
15,"SAVQTPPSPPVSPRVLS [PCARE, putative FBXW7 degron motif tested as EGFP-fused degradation probe]",Negative
16,"SDLDKTPPPSPPPEED [CHD7, putative FBXW7 degron motif tested as EGFP-fused degradation probe]",Negative
17,"SPFHGSSPPQSTPLSPPPLTPK [DOCK5, putative FBXW7 degron motif tested as EGFP-fused degradation probe]",Negative
18,"SPGDSPPGTPPASPPSSAWQ [TBC1D4, putative FBXW7 degron motif tested as EGFP-fused degradation probe]",Negative
19,"SRNHSPSPPVTPTGAA [NHSL1, putative FBXW7 degron motif tested as EGFP-fused degradation probe]",Negative
20,"STKRKPRVSPPASPTLEVE [SH3RF1, putative FBXW7 degron motif tested as EGFP-fused degradation probe]",Negative

# Reference: paper PMC8955265, “Systematic Discovery of FBXW7-Binding Phosphodegrons Highlights Mitogen-Activated Protein Kinases as Important Regulators of Intracellular Protein Levels” (International Journal of Molecular Sciences, 2022)
